As a reminder, the solubility is how much of the substance goes into solution per volume. In general, IC50 refers to the concentration that inhibits the measured activity by half. High values mean lower potency, low ones higher potency.

This is an account of results in patent publication US10117950B2, “Compounds and compositions for the treatment of ocular disorders” (Graybug Vision, Inc., priority 2015, dated 2018).

Data set [1] can be described thus: Determination of drug solubility. The data set is classed as physicochemical. The following applies: for solubility: thermodynamic from solid. As for the experimental part:
For each test, approximately 5-10 mg was transferred to a 10 mL glass vial. Aqueous or organic solvent was added to each vial to achieve an overall concentration of 50 mg/mL. After vortexing aggressively for 2-3 minutes and sonicating in a bath sonicator for 5 minutes, undissolved drug was spun down at 1200 rpm for 5 minutes to generate a pellet. The supernatant was collected and filtered through a 0.2 μm nylon syringe filter into HPLC vials for drug content analysis. Drug concentration was determined by comparing against a standard calibration curve.

Data set [2] is described as follows: In vitro stability of bifunctional conjugates (HPLC, 254 nm). In kind it is physicochemical. Conditions: PBS pH 7.0, 20% DMSO; for degradation kinetics: one day. As for the experimental part:
Briefly, brinzolamide-PLA (n=4)-succinate-5-hydroxy-sunitinib (60-1) or dorzolamide-PLA (n=4)-succinate-5-hydroxy-sunitinib (58-5) was first dissolved in a solution of PBS (pH 7.0) with 20% DMSO (v/v) and incubated at 37° C. or 60° C. for 14 days.

The target in data set [3] is T1, bovine erythrocyte carbonic anhydrase II (Bos taurus, UniProt P00921).
T1 construct: purified bovine erythrocyte carbonic anhydrase II; from tissue; host or cells: bovine erythrocytes
Briefly: Carbonic anhydrase II inhibition, colorimetric 4-nitrophenyl acetate hydrolysis. The data set is classed as biochemical. The protocol: The catalytic activity of carbonic anhydrase II was assessed by a colorimetric method, in which 4-nitrophenyl acetate is hydrolyzed to acetate and nitrophenolate. The nitrophenolate ionizes to generate a bright yellow anion that is readily detected by measuring its absorbance at 350-400 nm. […] Acetazolamide was added as a positive control and 100% DMSO was added as a negative control. The reaction was initiated with the addition of 20 μL of 4-nitrophenyl acetate (0.7 mM in ethanol).

Data set [4] is described as follows: In vitro stability of latanoprost NCEs (RP-HPLC). The data set is classed as physicochemical. The following applies: PBS pH 7.0, 20% DMSO, 37° C., 14 days. The protocol:
Latanoprost and latanoprost-PLA conjugates were solubilized with the addition of 20% (v/v) DMSO and subsequently suspended to a concentration of 1 mg/mL in PBS (pH 7.0).

The mark [5] stands for this setting: DMSO, organic solvent or mixture, read-out: Solubility DMSO.
The mark [6] stands for this setting: water / aqueous solvent, read-out: Solubility Water.

SMILES strings stand for the structures. Where two headings read alike, the source gives them in different places.

T1 sequence (P00921 whole entry): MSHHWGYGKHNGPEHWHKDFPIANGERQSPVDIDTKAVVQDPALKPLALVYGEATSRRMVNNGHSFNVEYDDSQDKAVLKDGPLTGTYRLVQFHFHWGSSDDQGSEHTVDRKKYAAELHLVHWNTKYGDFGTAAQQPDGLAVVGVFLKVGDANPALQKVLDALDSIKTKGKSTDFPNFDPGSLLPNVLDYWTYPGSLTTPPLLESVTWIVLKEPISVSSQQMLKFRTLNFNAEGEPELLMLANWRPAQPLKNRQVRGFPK

`CCN[C@H]1C[C@H](C)S(=O)(=O)c2sc(S(=O)(=O)NC(=O)[C@H](C)OC(=O)[C@H](C)OC(=O)[C@H](C)OC(=O)[C@H](C)OC(=O)CCC(=O)Oc3ccc4c(c3)/C(=C/c3[nH]c(C)c(C(=O)NCCN(CC)CC)c3C)C(=O)N4)cc21` [58-5, dorzolamide-PLA(n=4)-succinate-5-hydroxy-Sunitinib]: the solubility in data set [1] (setting [5]) is above 50 mg/mL; in data set [1] (setting [6]), below 1 mg/mL. In addition, in data set [2], the “degradation kinetics” value is on record as “rapidly decreasing after one day”. Further, the “carbonic anhydrase inhibitory activity” value in data set [3] is “lowest inhibitory activity”. Moreover, the IC50 in data set [3] (n = 2) was 222 ± 36.3 nM.
As for `CCN[C@H]1CN(CCCOC)S(=O)(=O)c2sc(S(=O)(=O)NC(=O)[C@H](C)OC(=O)[C@H](C)OC(=O)[C@H](C)OC(=O)[C@H](C)OC(=O)CCC(=O)Oc3ccc4c(c3)/C(=C/c3[nH]c(C)c(C(=O)NCCN(CC)CC)c3C)C(=O)N4)cc21` [60-1, brinzolamide-PLA(n=4)-succinate-5-hydroxy-Sunitinib], the solubility in data set [1] (setting [5]) is above 50 mg/mL; in data set [1] (setting [6]), below 1 mg/mL. Further, the “PLA (n=4) signal” value in data set [2] (after one day of incubation) worked out at 15.7%; in data set [2] (before incubation) it was 83%. Besides, the “degradation kinetics” value in data set [2] is “rapidly hydrolyzed”.
Take `CC(C)OC(=O)CCC/C=C\C[C@@H]1[C@@H](CC[C@@H](O)CCc2ccccc2)[C@H](O)C[C@@H]1O` [Latanoprost, latanoprost, reference compound]: the solubility is above 50 mg/mL in data set [1] (DCM, organic solvent or mixture, read-out: Solubility DCM); above 50 mg/mL in data set [1] (setting [5]); above 50 mg/mL in data set [1] (organic solvent (not named), organic solvent or mixture, organic solvent, read-out: organic solubility); below 1 mg/mL in data set [1] (setting [6]). Further, in data set [1] (water / aqueous solvent), the “Solubility Water” value is on record as “very low aqueous solubility”. In data set [4], the “in vitro stability” value is recorded as “good stability”.
